# Assay results from US20070294785A1, “METHODS FOR […] DIVERSITY BY PERMUTATIONAL MUTAGENESIS” (Athenix Corporation, priority 2006, published 2007).
# Test system: BL21*DE3 competent E. coli cells
# Assay: Screening for glyphosate resistance on plates
# Format: cell-based
# Conditions: M63+ agar plates, 50 mM glyphosate, 0.05 mM IPTG, 50 ug/ml kanamycin, 36 hours at 37° C.
# Description: Library ligations were transformed into BL21*DE3 competent E. coli cells (Invitrogen). The transformations were performed according to the manufacturer's instructions with the following modifications. After incubation for 1 hour at 37° C. in SOC medium, the cells were sedimented by centrifugation (5 minutes, 1000×g, 4° C.). The cells were washed with 1 ml M63+, centrifuged again, and the supernatant decanted. The cells were washed a second time with 1 ml M63+ and resuspended in 200 ul M63+.
# For selection of mutant GRG1 enzymes conferring glyphosate resistance to E. coli, the cells were plated onto M63+ agar medium plates containing 50 mM glyphosate, 0.05 mM IPTG (isopropyl-beta-D-thiogalactopyranoside), and 50 ug/ml kanamycin. M63+ medium contains 100 mM KH2PO4, 15 mM (NH4)2SO4, 50 μM CaCl2, 1 μM FeSO4, 50 μM MgCl2, 55 mM glucose, 25 mg/liter L-proline, 10 mg/liter thiamine HCl, sufficient NaOH to adjust the pH to 7.0, and 15 g/liter agar. The plates were incubated for 36 hours at 37° C.
row,Substance,glyphosate resistance (growth on glyphosate plates)
1,L2-9 (PFINCGESGLSFRMFIPMVALSK; Clone L2-9),glyphosate resistant
2,L2-A (PFINCDESGLSFRMFTPIVALSK; Clone L2-A),glyphosate resistant
3,L2-4 (PFIKCRESGLSMRMFAPMVALSK; Clone L2-4),glyphosate resistant
4,L2-6 (PFIDCGESGLSFRMFVPIVALSK; Clone L2-6),glyphosate resistant
5,L2-7 (PFIECGESGLSIRLFTPLVALSK; Clone L2-7),glyphosate resistant
6,L2-3 (PFIDCDESGLSIRMFTPIVALSK; Clone L2-3),glyphosate resistant
7,L2-8 (PFIDCSESGLSFRMFAPLVALSK; Clone L2-8),glyphosate resistant
